From US20070225242A1, “Method and composition for treating and preventing tumor metastasis in vivo” (The Board of Trustees of the Leland Stanford Junior …, priority 2005, published 2007)

Assays:
[1] = test system: RAW macrophages; assay: In vitro invasion of RAW macrophages towards conditioned media; assay type: cell-based; conditions: BAPN at 200 μM
Procedure: To determine if LOX levels affected the migration or invasion of BMDCs, we performed in vitro invasion assays using CM as a chemo-attractant (FIG. 21B). The migration of BMDCs was increased by FN, regardless of LOX.
In vitro migration and invasion of RAW macrophage cells towards CM (as chemo-attractant) was measured in a transwell assay as described above. Fibronectin (cFN, Sigma) was used at 25 μg/ml and BAPN at 200 μM. Matrigel plugs were formed by mixing 60% Matrigel with 40% CM prior to subcutaneous injection of 500 μl of the mixture. Plugs were removed 7 days later, fixed in OCT, sectioned and stained for B-cells (B220). Cells in 10 fields of view were counted at least 50 μm away from the edge of the plug.

[2] = test system: MDA231 cells; assay: Pulmonary metastases from orthotopic MDA231 tumors with conditioned media injections after bone marrow transplantation; assay type: in vivo, mice
From the text: We then determined whether elevated levels of circulating LOX from hypoxic tumor cells could affect BMDC recruitment and formation of the metastatic niche. We transplanted male bone marrow cells into female mice prior to orthotopically implanting Wt or LOX shRNA MDA231 cells, and used in situ hybridization with a Y-chromosome-specific probe to investigate BMDC recruitment. We allowed two weeks for primary tumor formation, and then supplemented the mice with different levels of circulating LOX for four weeks by daily intraperitoneal CM injections (FIG. 20B).
Nude (nu/nu) 6-week old female mice were lethally irradiated (950 rads) and transplanted with 10^6 bone marrow cells isolated from the tibia and femur of nude (nu/nu) male mice 48 hr later. After 4 weeks, 10^7 MDA231 human breast cancer cells expressing either an shRNA targeting LOX or a scrambled control sequence were implanted orthotopically in the mammary fat pad.
(§1) Conditioned media (CM) consisted of serum-free Modified Eagle's Medium cultured on MDA231 LOX shRNA or control cells incubated in normoxia (N; 21% O2) or hypoxia (H; 2% O2) for 24 h. CM was passed through a 0.22-μm filter and 300-μl were injected intraperitoneally daily into mice (Kaplan (2005), supra). When stated, beta-aminoproprionitrile was added to CM for an injection dose of 100 mg/kg. […]

[3] = test system: MDA231 human breast cancer cells; assay: Pulmonary foci after i.v. MDA231 cells with daily conditioned media injections; assay type: in vivo, mice; conditions: i.v. tumor cells with daily CM injections
From the text: To determine if the effect of increased circulating LOX levels on the growth of tumor cell foci at metastatic sites was independent of the initial steps of metastasis from a primary tumor (Steeg (2006) Nat. Med. 12:895-904), we intravenously injected MDA231 human breast cancer cells that expressed either LOX-targeting shRNA or a scrambled control sequence (Wt). We also provided circulating LOX by daily intraperitoneal injections of conditioned media (CM) derived from Wt or LOX shRNA cells exposed to hypoxic (H) or normoxic (N) conditions for 24 hours in vitro. […] CM from aerobic LOX shRNA cells had the lowest LOX activity (FIG. 19B).
Local secretion of LOX by Wt tumor cells could sustain growth of Wt foci in the absence of exogenous circulating LOX, although larger foci were present when circulating LOX from hypoxic Wt CM was supplied (FIG. 19F-G). Since circulating LOX levels are highest in mice prior to metastasis formation from a primary tumor (FIG. 19A), we injected CM daily for 2 weeks prior to i.v. tumor cell injection (FIG. 19B).
as §1, with “supra).” for “supra). When stated, beta-aminoproprionitrile was added to CM for an injection dose of 100 mg/kg.”

[4] = test system: Caski human cervical cancer cells; assay: Tail vein metastasis and survival assay, Caski cells; assay type: in vivo, mice
Procedure: Described briefly below are the results of experiments conducted with several different cell types. • 1. PANCREATIC: Panc-1 human pancreatic cells (see ATCC CRL-1469) expressing LOX shRNA were subjected to a tail vein metastasis assay comparing their metastatic growth to that of control Panc-1 cells. […] CERVICAL: Tail vein metastasis assays were performed using Caski human cervical cancer cells (See CRL-1550). After 4 weeks of growth, half the mice were treated with BAPN. […] COLON: HCT116 human colon cancer cells (see CCL-247) were transfected to express LOX shRNA and grown as subcutaneous tumors in nude mice, while comparing their growth with that of control cells.
Caski Cervical cancer cells were injected into the tail vein of immune deficient mice and analyzed for survival differences. Metastases were allowed to form for two weeks before animals were treated with 100 mg/kg BAPN daily for up to 40 days. FIG. 14 is a Kaplan-Meyer plot showing survival of the animals. […] Upon discontinuation of BAPN treatment, animals started to die.

[5] = test system: MDA-MB 231 cells; assay: MDA-MB 231 cells grown as orthotopic tumors in nude mice; lung and liver metastases
Procedure: In addition, MDA231 cells were grown as orthotopic tumors in nude mice. […] In FIGS. 5 A and B, data were obtained by microscopic quantification of metastases in lungs and livers stained with hematoxylin and eosin. […] 4 wk BAPN represents treatment started at week 4, etc.
To evaluate the therapeutic usefulness of inhibiting LOX, mice with control MDA231 tumors were treated with β-aminoproprionitrile (BAPN), a specific and irreversible inhibitor of LOX enzymatic activity. […] In FIG. 5C, metastases were counted weekly over six weeks for ten sections (n=5 mice). Solid line, with circles control lung; dashed line with triangles, control liver; solid line with squares, BAPN lung; dashed line with squares, BAPN liver. BAPN was started at week 2. Antibody doses: unlabelled, 20 mg kg^−1; asterisk, 4 mg kg^−1; two asterisks, 1 mg kg^−1. Control, n=10; LOX shRNA, n=10; 4 wk BAPN, n=10; 3 wk BAPN, n=3; 2 wk BAPN, n=3; LOX antibody, n=5. Treatment details are given in Methods.
MDA-MB 231 cells were grown as subcutaneous orthotopic tumors in 6-week-old female Nude (nu/nu) mice following intradermal injection of 1×10^7 cells in 0.1 ml of PBS into the mammary fat pad. Mice were sacrificed and tumors excised six weeks after inoculation. […] Lung and liver metastases were defined as gross lesions of at least 25 cells.

[6] = BAPN 100 mg kg-1 daily i.p. or antibody 20 mg kg-1 twice weekly, control MDA231 tumors

Question: Which results are given for `N#CCCN` [BAPN, β-aminoproprionitrile]?
Answer: increased BMDC invasion with hypoxic Wt CM [1]: could be prevented; pulmonary metastases of mice bearing Wt tumors ([2]; 6 wk post-orthotopic implantation): eliminated; increase in LOX shRNA tumor cell metastases in response to CM from hypoxic Wt cells ([2]; BAPN added to CM, injection dose 100 mg/kg): could be prevented; pulmonary foci formation [3]: diminished foci formation; animals survived ([4]; 100 mg/kg BAPN daily for up to 40 days, started two weeks after injection): 100%; disease course on renewed BAPN treatment ([4]; BAPN administered after 90 days to animals that already harbored metastases): became stabilized; lung foci (micro-metastases) ([4]; BAPN after 4 weeks of growth): eliminated formation of any lung foci; effect on metastatic tumors already formed ([5]; 4 wk BAPN, treatment started at week 4): eliminated tumors that had formed; liver metastases [5, 6]: did not have any lung metastases or liver metastases; lung metastases [5, 6]: did not have any lung metastases; metastatic lesions formed in orthotopic studies ([5]; BAPN treated mice): completely absent; deleterious side effects ([5]; antibody up to 20 mg kg-1 twice weekly, BAPN 100 mg kg-1 daily i.p. for four, three or two weeks): no deleterious side effects; primary tumor growth ([5]; inhibition of LOX with shRNA, BAPN or antibody): slight effect on primary tumor growth; invasion of primary tumors ([5]; primary tumors from treated mice or tumors expressing LOX shRNA): showed evidence of invasion; liver metastases ([5]; reduced antibody doses (4, 1 mg kg-1) or reduced periods of BAPN treatment): no liver metastases; lung metastases ([5]; reduced antibody doses (4, 1 mg kg-1) or reduced periods of BAPN treatment, even when metastases had already formed): significantly fewer lung metastases
